Assay [1] has as its target T1, BiP NBD (Homo sapiens, UniProt P11021). As to the kind of experiment: NMR without ATP regeneration at variable ADP:ATP ratio with 3.3 mM calcium, with and without E2. Format: biochemical. Also noted: His6 (N, cleaved yes); made in house; host or cells: E. coli BL21-(DE3)-Lemo, pET28a vector. The settings on record: replicates. The text has this:
Finally, we wanted to explore the effect of calcium on conditions with variable ADP concentration that represent the conditions in the ER. We thus exploited our modular experimental setup in the absence of the ATP regeneration system, with and without phosphate, to generate conditions where the ADP concentration increases (Supplementary Fig. 18). We determined the ATP hydrolysis rate and the populations of the different states for different ADP:ATP ratios and phosphate concentrations. We observed NMR signals corresponding to the NBD·ADP·Ca^2+-bound state, but not the NBD·Ca^2+-bound state, with population and occupancy time increasing with the ADP concentration (Fig. 5e). When free phosphate was allowed to accumulate in parallel, the occupancy time of the NBD·ADP·Ca^2+ state decreased, showing that the phosphate prevents the calcium from binding (Fig. 5f).
Supplementary Figure 18. NBD·ADP·Ca2+ forms as an off-cycle pathway state. a, 2D [13C,1H]-TROSY spectrum of methyl-labeled NBD in the presence of ADP:ATP 1:3, 3.3 mM calcium ([Mg2+]/[Ca2+]=3) and E2 active. State- and sequence-specific resonance assignments are indicated for the ADP·Ca2+- bound state (dark-pink), ADP-bound (light blue), ADP·Pi-bound (dark blue) and ATP-bound (red) states. b, Selected sections of 2D [13C,1H]-methyl-TROSY spectra of residue Val50cg1 in the presence of ADP:ATP 1:3 (pink) and with 3.3 mM calcium ([Mg2+]/[Ca2+]=3) (black) compared to in-cyclo no calcium (pink) and the equilibrium experiments of NBD with 3.3 mM calcium ([Mg2+]/[Ca2+]=3) (ligh-pink), NBD with 1 mM ADP and 3.3 mM calcium ([Mg2+]/[Ca2+]=3) (dark-pink). c,d, same as in (a,b) for the system in the absence of E2, i.e the phosphate concentration increases with ATP hydrolysis.

Assay [2] deals with T1, BiP NBD. Put plainly: Equilibrium 2D methyl-TROSY NMR fingerprint spectra with ligands (ATP analogs, calcium). Format: binding. On the set-up: His6 (N, cleaved yes); made in house; host or cells: E. coli BL21-(DE3)-Lemo, pET28a vector. The conditions noted are these: 3.3 mM calcium, 10 mM magnesium. As for the experimental part: First, we probed calcium binding to ADP-bound NBD by NMR equilibrium experiments. […] (Supplementary Fig. 15d). […] (Supplementary Fig. 16).
AMPPNP (adenylyl imidodiphosphate; Jena-bioscience), AMPPCP (adenylyl methylenediphosphate; Jena-bioscience) and ATP-γ-S (adenosine 5’-(gamma-thiotriphosphate; Jena-bioscience) were dissolved in the HKM reaction buffer (25 mM HEPES, pH 7.5, 150 mM KCl and 10 mM MgCl2) at a concentration of 50 mM directly before to be mixed with the BiP NBD sample. Samples were prepared fresh before each use to minimize the known instability of these analogs that undergo slow hydrolysis in solution.
Supplementary Figure 7. Analysis of the BiP NBD ATP-bound state. a, Combined methyl chemical shift differences between the APD·Pi-bound and the ATP-bound state of BiP NBD in-cyclo. The magnitude of 1 and 1.5 SDs are indicated by an orange and a red line, respectively. b, Overlay of 9 crystal structures of BiP NBD in presence of different nucleotides (colored sticks). c, Backbone root means square deviation (RMSD - Å) between the structures shown in (b) and the NBD apo state (PDB 3LDN). d, 2D [13C,1H]-TROSY spectrum of methyl-labeled BiP NBD in equilibrium with the ATP analogs AMPPNP (green), AMPPCP (orange) or ATP-γ-S (yellow), overlayed with the spectrum in-cyclo (pink).
State- and sequence-specific resonance assignments are indicated for the ADP-bound (light blue), ADP·Pi-bound (dark blue) and the ATP-bound (red) states in-cyclo.
(1 picture or pasted object on this page, not shown here)
Supplementary Figure 15. Mapping of calcium binding to BiP NBD. a, Selected details from published structures of BiP. From left to right: yeast BiP(NBD)-Mg2+-ADP (PDB 3QFU), human BiP(NBD)-Mg2+- ADP·Pi (PDB 5EVZ), human BiP(NBD)-Ca2+-ADP (PDB 6ZYH). b, Selected sections of 2D [13C,1H]-methyl-TROSY spectra of residue val50cg1 or Ile52cd1 for the equilibrium experiments of NBD apo (grey), NBD with 5 mM Pi (green), NBD with 1 mM ADP (light blue), NBD with 1 mM ADP·Pi (dark blue), NBD with 1 mM ADP-Ca2+ (dark-pink).and NBD with 3.3 mM calcium ([Mg2+]/[Ca2+]=3) (light-pink). c, Combined methyl chemical shift differences between the BiP NBD APD and the ADP-Ca2+-bound state. The magnitude of 1 and 1.5 SDs are indicated by a light blue and a dark blue line. d, Structure of NBD in […]
the ADP-Ca-bound state (PDB 6ZYH).

Where “and” joins values, the source holds several entries; their conditions need not be identical. Equal values may be shown once.

T1 sequence (P11021 19-406): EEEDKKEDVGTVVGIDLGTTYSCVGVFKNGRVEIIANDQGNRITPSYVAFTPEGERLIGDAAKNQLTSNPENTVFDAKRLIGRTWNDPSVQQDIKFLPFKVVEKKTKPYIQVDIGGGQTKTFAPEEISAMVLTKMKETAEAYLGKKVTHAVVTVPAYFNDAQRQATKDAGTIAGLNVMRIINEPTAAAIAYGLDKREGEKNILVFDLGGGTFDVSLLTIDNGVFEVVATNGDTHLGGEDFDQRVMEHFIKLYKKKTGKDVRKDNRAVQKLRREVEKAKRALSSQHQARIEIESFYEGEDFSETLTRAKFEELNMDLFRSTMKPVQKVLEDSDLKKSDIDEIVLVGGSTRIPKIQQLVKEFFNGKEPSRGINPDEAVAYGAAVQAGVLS

Turning to `[Ca+2]` [calcium], the cycle on BiP NBD [1] (Fig 5e: with E2, 3.3 mM calcium, ADP:ATP 1:2) is 151.31 s and 139.92 s and 133.95 s; at BiP NBD [1] (Fig 5e: with E2, 3.3 mM calcium, ADP:ATP 1:3), 107.58 s and 118.91 s and 122.37 s; on BiP NBD [1] (Fig 5e: with E2, 3.3 mM calcium, ADP:ATP 1:4), 78.87 s and 92.84 s and 108.72 s; on BiP NBD [1] (Fig 5e: with E2, 3.3 mM calcium, ADP:ATP 1:5) it was 55.19 s and 43.78 s and 57.90 s; at BiP NBD [1] (Fig 5f: without E2, 3.3 mM calcium, ADP:ATP 1:2), 191.98 s and 221.37 s and 190.59 s; at BiP NBD [1] (Fig 5f: without E2, 3.3 mM calcium, ADP:ATP 1:3) it was 130.46 s and 156.85 s and 135.76 s. Besides, the cycle was 97.52 s and 113.75 s and 85.45 s at BiP NBD [1] (Fig 5f: without E2, 3.3 mM calcium, ADP:ATP 1:4); 72.26 s and 65.96 s and 73.59 s at BiP NBD [1] (Fig 5f: without E2, 3.3 mM calcium, ADP:ATP 1:5). The “calcium binding to ADP-bound NBD (CSPs)” value at BiP NBD [2] was “calcium binding occurred”.

Source of the values: article PMC12126525, “Mechanism of ATP hydrolysis in the Hsp70 BiP nucleotide-binding domain” (Nature Communications, 2025).
